{
  "source": "ChEMBL document CHEMBL5316350",
  "about": "“Novel Pyrido[2',1':2,3]imidazo[4,5-c]quinoline Derivative Selectively Poisons Leishmania donovani Bisubunit Topoisomerase 1 to Inhibit the Antimony-Resistant Leishmania Infection in Vivo” (J Med Chem, 2023)",
  "key": {"DNA topoisomerase I [1]": {"molecular_target": "T1, DNA topoisomerase I (Leishmania donovani (strain BPK282A1), UniProt E9BRC0)", "T1 sequence (E9BRC0 whole entry)": "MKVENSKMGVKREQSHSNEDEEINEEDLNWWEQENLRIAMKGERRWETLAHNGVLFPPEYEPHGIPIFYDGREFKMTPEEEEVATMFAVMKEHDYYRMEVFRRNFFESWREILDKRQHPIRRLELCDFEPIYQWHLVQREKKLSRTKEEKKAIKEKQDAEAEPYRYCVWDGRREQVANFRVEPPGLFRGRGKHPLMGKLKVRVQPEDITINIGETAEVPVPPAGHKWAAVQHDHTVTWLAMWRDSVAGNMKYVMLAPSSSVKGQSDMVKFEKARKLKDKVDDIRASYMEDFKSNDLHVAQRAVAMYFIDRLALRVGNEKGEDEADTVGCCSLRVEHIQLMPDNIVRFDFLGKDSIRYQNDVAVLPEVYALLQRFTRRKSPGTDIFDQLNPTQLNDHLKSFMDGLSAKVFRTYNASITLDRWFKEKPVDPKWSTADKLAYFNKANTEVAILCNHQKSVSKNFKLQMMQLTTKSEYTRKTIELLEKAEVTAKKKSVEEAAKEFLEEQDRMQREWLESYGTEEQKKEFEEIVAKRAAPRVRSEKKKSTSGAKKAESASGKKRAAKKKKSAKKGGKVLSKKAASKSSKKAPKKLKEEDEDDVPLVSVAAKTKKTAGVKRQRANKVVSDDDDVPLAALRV", "test": "Inhibition of Leishmania donovani Top1 assessed as relaxation of supercoiled pBluescript SK(+) DNA measured by agarose gel electrophoresis analysis"}, "[2]": {"molecular_target": "T2, DNA topoisomerase I (Leishmania donovani (strain BPK282A1)) (UniProt E9BRC0)", "T2 sequence (whole entry)": "T1 sequence (E9BRC0 whole entry)", "test": "Inhibition of Leishmania donovani topoisomerase I assessed as DNA intercalation using pBluscript (SK+) DNA as substrate at 50 to 200 uM incubated for 15 mins ethidium bromide staining based UV analysis", "conditions": "dose 50-200 µM"}, "[3]": {"molecular_target": "T2, DNA topoisomerase I (Leishmania donovani (strain BPK282A1))", "test": "Binding affinity to Leishmania donovani topoisomerase I assessed as DNA intercalation by measuring dislodging of bound fluorophore at 50 uM by EtBr displacement assay"}, "DNA topoisomerase I [4]": {"molecular_target": "T1, DNA topoisomerase I", "test": "Inhibition of recombinant Top1 in Leishmania donovani Ag83 whole cell extract assessed as relaxation of supercoiled pBluescript SK(+) DNA measured by agarose gel electrophoresis analysis"}, "[5]": {"test": "Cytotoxicity against BALB/c mouse macrophage assessed as cell viability measured after 48 hrs infection by propidium iodide staining analysis relative to control", "type": "toxicity, cell-based", "conditions": "mouse macrophages"}, "[6]": {"molecular_target": "T2, DNA topoisomerase I (Leishmania donovani (strain BPK282A1))", "test": "Binding affinity to topoisomerase I in Leishmania donovani Ag83 whole cell lysate assessed as stabilization of cleavage complex at 50 to 100 uM measured after 30 mins", "type": "subcellular", "conditions": "dose 50-100 µM"}, "Leishmania donovani [7]": {"tested_on": "Leishmania donovani", "test": "Antileishmanial activity in Leishmania donovani Ag83 promastigotes assessed as reversible of Top1cc-induced DNA breakdown by disappearance of measuring TUNEL positive cells treated for 6 to 12 hrs followed by compound removal measured after 6 to 12 hrs by confocal microscopic analysis", "type": "functional, organism-based", "conditions": "time 6-12 hrs"}, "Leishmania donovani [8]": {"tested_on": "Leishmania donovani", "test": "Antileishmanial activity against antimony resistant Leishmania donovani BHU575 promastigotes assessed as cell viability by MTT assay", "type": "functional, organism-based"}, "[9]": {"molecular_target": "T2, DNA topoisomerase I (Leishmania donovani (strain BPK282A1))", "test": "Binding affinity to antimony resistant Leishmania donovani BHU575 promastigotes recombinant topoisomerase I assessed as stabilization of cleavage complex at 50 to 100 uM measured after 30 mins", "conditions": "dose 50-100 µM"}, "MCF7": {"tested_on": "MCF7", "test": "Induction of cell cycle arrest in human MCF7 cells assessed as accumulation at G1 sub population measured at 5 uM upto 24 hrs by PI staining based flow cytometry", "type": "functional"}, "Leishmania donovani [10]": {"tested_on": "Leishmania donovani", "test": "Antileishmanial activity against Leishmania donovani Ag83 amastigotes infected in BALB/c mouse macrophage assessed as cell viability measured after 48 hrs infection by propidium iodide staining analysis relative to control", "type": "functional, organism-based", "conditions": "Ag83, 48 h"}, "Leishmania donovani [11]": {"tested_on": "Leishmania donovani", "test": "Stabilization of Leishmania donovani promastigotes Top1-DNA complex assessed as formation of SDS-KCl precipitable complex incubated for 110 mins by anti-BrdU staining based spectrophotometric analysis"}, "Leishmania donovani [12]": {"tested_on": "Leishmania donovani", "test": "Antileishmanial activity against Leishmania donovani Ag83 promastigotes assessed as cell viability by MTT assay", "type": "functional, organism-based"}, "Leishmania donovani [13]": {"tested_on": "Leishmania donovani", "test": "Antileishmanial activity against antimony resistant Leishmania donovani BHU575 amastigotes infected in BALB/c mouse macrophage assessed as cell viability measured after 48 hrs infection by propidium iodide staining analysis relative to control", "type": "functional, organism-based", "conditions": "BHU575, 48 h"}, "[14]": {"molecular_target": "T2, DNA topoisomerase I (Leishmania donovani (strain BPK282A1))", "test": "Binding affinity to Leishmania donovani recombinant topoisomerase I assessed as stabilization of cleavage complex at 25 to 50 uM measured after 30 mins", "conditions": "dose 25-50 µM"}, "Leishmania donovani [15]": {"tested_on": "Leishmania donovani", "test": "Antileishmanial activity in Leishmania donovani Ag83 promastigotes assessed as Top1cc-induced DNA breakdown by measuring TUNEL positive cells by confocal microscopic analysis", "type": "functional, organism-based", "conditions": "time 6-12 hrs, TDE = time-dependent effect"}},
  "note": "pEC50, pIC50: −log10 of the molar value. Calls of active or inactive are those of the source. The calls are words filed in the database; no cut-off is given here.",
  "data": [
    {"smiles": "Cc1ccc2nc3c4ccccc4ncc3n2c1", "values": [
      {"measurement": "pIC50", "setting": "DNA topoisomerase I [1]", "result": "< 5.00"}
    ]},
    {"smiles": "COc1ccc(-c2nc3ccccc3c3nc4cc(C)ccn4c23)cc1", "values": [
      {"measurement": "pIC50", "setting": "DNA topoisomerase I [1]", "result": "< 5.00"}
    ]},
    {"smiles": "c1ccc(-c2nc3ccccc3c3nc4ccccn4c23)cc1", "values": [
      {"measurement": "pIC50", "setting": "DNA topoisomerase I [1]", "result": "< 5.00"}
    ]},
    {"smiles": "Cc1ccn2c(c1)nc1c3ccccc3nc(-c3ccccc3)c12", "values": [
      {"measurement": "pIC50", "setting": "DNA topoisomerase I [1]", "result": "< 5.00"}
    ]},
    {"smiles": "Cc1ccc(-c2nc3ccccc3c3nc4cc(C)ccn4c23)cc1", "values": [
      {"measurement": "pIC50", "setting": "DNA topoisomerase I [1]", "result": "< 5.00"}
    ]},
    {"smiles": "Brc1ccc2nc3c4ccccc4ncc3n2c1", "values": [
      {"measurement": "pIC50", "setting": "DNA topoisomerase I [1]", "result": "< 5.00"}
    ]},
    {"smiles": "O=[N+]([O-])c1ccccc1-c1nc2ccccc2c2nc3ccccn3c12", "values": [
      {"measurement": "pIC50", "setting": "DNA topoisomerase I [1]", "result": "< 5.00"}
    ]},
    {"smiles": "COc1cc(NS(C)(=O)=O)ccc1Nc1c2ccccc2nc2ccccc12", "values": [
      {"measurement": "inhibition", "setting": "[2]", "result": "Active"},
      {"measurement": "Activity", "setting": "[3]", "result": "Active"}
    ]},
    {"smiles": "Clc1ccc(-c2nc3ccccc3c3nc4ccccn4c23)cc1", "values": [
      {"measurement": "pIC50", "setting": "DNA topoisomerase I [1]", "result": 5.07}
    ]},
    {"smiles": "Cc1cccn2c1nc1c3ccccc3nc(-c3ccc(Cl)cc3)c12", "values": [
      {"measurement": "pIC50", "setting": "DNA topoisomerase I [1]", "result": 5.26},
      {"measurement": "pIC50", "setting": "DNA topoisomerase I [4]", "result": 4.90}
    ]},
    {"smiles": "O=[N+]([O-])c1ccc(-c2nc3ccccc3c3nc4ccccn4c23)cc1", "values": [
      {"measurement": "pIC50", "setting": "DNA topoisomerase I [1]", "result": "< 5.00"}
    ]},
    {"smiles": "Cc1cccn2c1nc1c3ccccc3nc(-c3ccccc3)c12", "values": [
      {"measurement": "pIC50", "setting": "DNA topoisomerase I [1]", "result": 5.17},
      {"measurement": "pIC50", "setting": "DNA topoisomerase I [4]", "result": 4.89}
    ]},
    {"smiles": "c1ccc2c(c1)ncc1c2nc2ccccn21", "values": [
      {"measurement": "pIC50", "setting": "DNA topoisomerase I [1]", "result": "< 5.00"}
    ]},
    {"smiles": "Clc1ccc2nc3c4ccccc4ncc3n2c1", "values": [
      {"measurement": "pIC50", "setting": "DNA topoisomerase I [1]", "result": "< 5.00"}
    ]},
    {"smiles": "Cc1ccc(-c2nc3ccccc3c3nc4c(C)cccn4c23)cc1", "values": [
      {"measurement": "pIC50", "setting": "DNA topoisomerase I [1]", "result": 5.14},
      {"measurement": "pIC50", "setting": "DNA topoisomerase I [4]", "result": 4.82}
    ]},
    {"smiles": "CC[C@@]1(O)C(=O)OCc2c1cc1n(c2=O)Cc2cc3ccccc3nc2-1", "note": "[CAMPTOTHECIN]", "values": [
      {"measurement": "EC50 at 48 h", "setting": "[5]", "result": 18.3, "unit": "µM"},
      {"measurement": "Activity", "setting": "[6]", "result": "Active"},
      {"measurement": "Activity", "setting": "Leishmania donovani [7]", "result": "inactive"},
      {"measurement": "pEC50", "setting": "Leishmania donovani [8]", "result": 5.18},
      {"measurement": "Activity", "setting": "[9]", "result": "Active"},
      {"measurement": "Activity", "setting": "MCF7", "result": "Active"},
      {"measurement": "pEC50", "setting": "Leishmania donovani [10]", "result": 5.11},
      {"measurement": "Activity", "setting": "Leishmania donovani [11]", "result": "Active"},
      {"measurement": "pEC50", "setting": "Leishmania donovani [12]", "result": 5.42},
      {"measurement": "pEC50", "setting": "Leishmania donovani [13]", "result": 4.89},
      {"measurement": "Activity", "setting": "[14]", "result": "Active"},
      {"measurement": "Activity", "setting": "Leishmania donovani [15]", "result": "Tde"}
    ]},
    {"smiles": "Cc1ccc(-c2nc3ccccc3c3nc4ccccn4c23)cc1", "values": [
      {"measurement": "pIC50", "setting": "DNA topoisomerase I [1]", "result": "< 5.00"}
    ]},
    {"smiles": "O=[N+]([O-])c1cccc(-c2nc3ccccc3c3nc4ccccn4c23)c1", "values": [
      {"measurement": "pIC50", "setting": "DNA topoisomerase I [1]", "result": "< 5.00"}
    ]},
    {"smiles": "Cc1cccn2c1nc1c3ccccc3nc(-c3ccccn3)c12", "values": [
      {"measurement": "pIC50", "setting": "DNA topoisomerase I [1]", "result": "< 5.00"}
    ]},
    {"smiles": "COc1ccc(-c2nc3ccccc3c3nc4ccccn4c23)cc1OC", "values": [
      {"measurement": "pIC50", "setting": "DNA topoisomerase I [1]", "result": 5.28},
      {"measurement": "pIC50", "setting": "DNA topoisomerase I [4]", "result": 4.92}
    ]},
    {"smiles": "COc1cc([C@@H]2c3cc4c(cc3[C@@H](O[C@@H]3O[C@@H]5CO[C@@H](C)O[C@H]5[C@H](O)[C@H]3O)[C@H]3COC(=O)[C@H]23)OCO4)cc(OC)c1O", "values": [
      {"measurement": "inhibition", "setting": "[2]", "result": "inactive"}
    ]},
    {"smiles": "Cc1cccn2c1nc1c3ccccc3nc(-c3cccs3)c12", "values": [
      {"measurement": "pIC50", "setting": "DNA topoisomerase I [1]", "result": 5.14},
      {"measurement": "pIC50", "setting": "DNA topoisomerase I [4]", "result": 4.83}
    ]},
    {"smiles": "Cc1ccn2c(c1)nc1c3ccccc3ncc12", "values": [
      {"measurement": "pIC50", "setting": "DNA topoisomerase I [1]", "result": "< 5.00"}
    ]}
  ]
}
